Measured values from patent US10195185B2, “3-(1H-imidazo[4,5-C]pyridin-2-yl)-1H-pyrazolo[4,3-B]pyridines and therapeutic uses thereof” (Samumed, LLC, priority 2015, dated 2019).
One block for each molecule: values may come before it.

Experiments:
[1] = system: primary human mesenchymal stem cells (hMSCs); test: Induction of chondrogenesis in hMSCs (nodule area, Rhodamine B / Nile Red); type: cell-based; conditions: TGF-β3 as positive control; for Emax: read-out: Max. Activity as % TGF-β3 activity; for EC50: concentration required to induce 50% levels of chondrogenesis, read-out: Conc (nM) of 50% TGF-β3 activity
Method: Representative compounds were screened using primary human mesenchymal stem cells (hMSCs) to determine their ability to induce chondrogenesis (process by which cartilage is developed).
Primary human mesenchymal stem cells (hMSCs) were purchased from Lonza (Walkersville, Md.) and expanded in Mesenchymal Stem Cell Growth Media (Lonza). Cells between passage 3 and 6 were used for the experiments.
Each compound was dissolved in DMSO as a 10 mM stock and used to prepare compound source plates. For the 96 well assay, serial dilution (1:3, 6-point dose-response curves from 2700 nM to 10 nM) and compound transfer was performed using the ECHO 550 (Labcyte, Sunnyvale, Calif.) into 96-well clear bottom assay plates (Greiner Bio-One) with appropriate DMSO backfill for a final DMSO concentration of 0.03%. hMSCs were plated at 20,000 cells/well in 250 μL/well Incomplete Chondrogenic Induction Medium (Lonza; DMEM, dexamethasone, ascorbate, insulin-transferrin-selenium [ITS supplement], gentamycin-amphotericin [GA-1000], sodium pyruvate, proline and L-glutamine). TGF-β3 (10 ng/mL) was used as a positive control for differentiation while negative control wells were treated with 75 nL DMSO for normalization and calculating EC50 values. For the 384 well assay, serial dilution (1:3, 8-point dose-response curves from 5000 nM to 2.2 nM) and compound transfer was performed using the ECHO 550 (Labcyte, Sunnyvale, Calif.) into 384-well clear bottom assay plates (Greiner Bio-One) with appropriate DMSO backfill for a final DMSO concentration of 0.03%. hMSCs were plated at 8,000 cells/well in 80 μL/well Incomplete Chondrogenic Induction Medium (Lonza; DMEM, dexamethasone, ascorbate, insulin-transferrin-selenium [ITS supplement], gentamycin-amphotericin [GA-1000], sodium pyruvate, proline and L-glutamine). TGF-β3 (10 ng/mL) was used as a positive control for differentiation while negative control wells were treated with 25 nL DMSO for normalization and calculating EC50 values. Cells were incubated at 37° C. and 5% CO2 for 6 days. To image chondrogenic nodules, the cells were fixed using 4% formaldehyde (Electron Microscopy Sciences), and stained with 2 μg/mL Rhodamine B (Sigma-Aldrich) and 20 μM Nile Red (Sigma-Aldrich) [Johnson K., et. al, A Stem Cell-Based Approach to Cartilage Repair, Science, (2012), 336(6082), 717-721]. The nodules imaged (25 images per well for 96 well plates and 9 images per well for 384 well plates at 10× magnification) by excitation at 531 nm and emission at 625 nm and quantified using the CellInsight CX5 (Thermo Scientific). Area of nodules in each well was normalized to the average of 3 DMSO treated wells on the same plate using Excel (Microsoft Inc.). The normalized averages (fold change over DMSO) of 2 or 3 replicate wells for each compound concentration were calculated. Due to solubility limitations of some of the compounds, curve fitting was incomplete leading to inaccurate EC50 determinations.
Using TGF-β3 as a positive control, the concentration of representative compounds required to induce 50% levels of chondrogenesis is reported. In addition, the maximum activity of each compound and the respective dose that each compound reached maximum chondrogenesis activity is reported.

[2] = system: Primary human fibroblasts derived from IPF patients (LL29 cells) treated with TGF-β1; test: Inhibition of the fibrotic process: αSMA staining in TGF-β1 treated fibroblasts; type: cell-based; conditions: Fibroblast, 96 h, LL29 fibroblasts treated with TGF-β1, 4 days; for inhibition at 10 µM: read-out: percent inhibition in brackets beside EC50 >10 μM
Procedure, shortened: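 LL29 cells plated in F12 with 1% FBS, compounds added as 11-point 1:2 series (10 μM to 1.87 nM, 0.1% DMSO), then TGF-β1 20 ng/mL; 4 days at 37 °C. Fixed, αSMA immunostained, imaged; SYTOX-positive cells excluded. % αSMA-positive cells normalized to TGF-β1 wells; EC50 by non-linear regression, or % inhibition at 10 μM.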

Compound: CCNCc1cncc(-c2ccc3[nH]nc(-c4nc5c(-c6ccccn6)nccc5[nH]4)c3n2)c1 [Compound 146, N-((5-(3-(4-(Pyridin-2-yl)-1H-imidazo[4,5-c]pyridin-2-yl)-1H-pyrazolo[4,3-b]pyridin-5-yl)pyridin-3-yl)methyl)ethanamine]
Emax [1]: 28% | EC50 [2]: 1.04 µM

EC50 [1]: 30 nM
Compound: O=C(Nc1cncc(-c2ccc3[nH]nc(-c4nc5c(-c6ccc(Cl)s6)nccc5[nH]4)c3n2)c1)C1CCC1 [Compound 1056, N-(5-(3-(4-(5-Chlorothiophen-2-yl)-1H-imidazo[4,5-c]pyridin-2-yl)-1H-pyrazolo[4,3-b]pyridin-5-yl)pyridin-3-yl)cyclobutanecarboxamide]
Emax [1]: 60% | EC50 [2]: 2.24 µM

EC50 [1]: 100 nM
Compound: CN1CCN(c2nccc3[nH]c(-c4n[nH]c5ccc(-c6cncc(N)c6)nc45)nc23)CC1 [Compound 227, 5-(3-(4-(4-Methylpiperazin-1-yl)-1H-imidazo[4,5-c]pyridin-2-yl)-1H-pyrazolo[4,3-b]pyridin-5-yl)pyridin-3-amine]
Emax [1]: 135% | EC50 [2]: > 10 µM | inhibition at 10 µM [2]: 22.5%

Compound: Cc1ccncc1-c1ccc2[nH]nc(-c3nc4c(-c5ccsc5)nccc4[nH]3)c2n1 [Compound 285, 5-(4-Methylpyridin-3-yl)-3-(4-(thiophen-3-yl)-1H-imidazo[4,5-c]pyridin-2-yl)-1H-pyrazolo[4,3-b]pyridine]
Emax [1]: 47% | EC50 [2]: 0.493 µM

Compound: CN1CCN(c2nccc3[nH]c(-c4n[nH]c5ccc(-c6cncc(NC(=O)C7CCCC7)c6)nc45)nc23)CC1 [Compound 246, N-(5-(3-(4-(4-Methylpiperazin-1-yl)-1H-imidazo[4,5-c]pyridin-2-yl)-1H-pyrazolo [4,3-b]pyridin-5-yl)pyridin-3-yl)cyclopentanecarboxamide]
EC50 [2]: 5.26 µM

Compound: c1cc2[nH]c(-c3n[nH]c4ccc(-c5cncc(OCCN6CCCC6)c5)nc34)nc2c(-c2ccoc2)n1 [Compound 690, 3-(4-(Furan-3-yl)-1H-imidazo[4,5-c]pyridin-2-yl)-5-(5-(2-(pyrrolidin-1-yl)ethoxy)pyridin-3-yl)-1H-pyrazolo[4,3-b]pyridine]
EC50 [2]: > 10 µM | inhibition at 10 µM [2]: 42.6%

Compound: Cn1cc(-c2ccc3[nH]nc(-c4nc5c(-c6ccc(F)cc6)nccc5[nH]4)c3n2)c(CO)n1 [Compound 1128, (4-(3-(4-(4-Fluorophenyl)-1H-imidazo[4,5-c]pyridin-2-yl)-1H-pyrazolo[4,3-b]pyridin-5-yl)-1-methyl-1H-pyrazol-3-yl)methanol]
EC50 [2]: 2.67 µM

Compound: Cn1cc(-c2ccc3[nH]nc(-c4nc5c(-c6cc(F)cc(CNS(C)(=O)=O)c6)nccc5[nH]4)c3n2)cn1 [Compound 764, N-(3-Fluoro-5-(2-(5-(1-methyl-1H-pyrazol-4-yl)-1H-pyrazolo [4,3-b]pyridin-3-yl)-1H-imidazo[4,5-c]pyridin-4-yl)benzyl)methanesulfonamide]
EC50 [2]: 1.06 µM

Compound: COc1cccc(-c2nccc3[nH]c(-c4n[nH]c5ccc(-c6cncc(O)c6)nc45)nc23)c1 [Compound 1030, 5-(3-(4-(3-Methoxyphenyl)-1H-imidazo[4,5-c]pyridin-2-yl)-1H-pyrazolo [4,3-b]pyridin-5-yl)pyridin-3-ol]
EC50 [2]: 9.7 µM

Compound: O=C(CC1CCNCC1)Nc1cncc(-c2ccc3[nH]nc(-c4nc5c(-c6ccsc6)nccc5[nH]4)c3n2)c1 [Compound 673, 2-(Piperidin-4-yl)-N-(5-(3-(4-(thiophen-3-yl)-1H-imidazo[4,5-c]pyridin-2-yl)-1H-pyrazolo[4,3-b]pyridin-5-yl)pyridin-3-yl)acetamide]
EC50 [2]: 1.07 µM

Compound: O=C(Nc1cncc(-c2ccc3[nH]nc(-c4nc5cnccc5[nH]4)c3n2)c1)C1CCCCC1 [Compound 275, N-(5-(3-(1H-Imidazo[4,5-c]pyridin-2-yl)-1H-pyrazolo[4,3-b]pyridin-5-yl)pyridin-3-yl)cyclohexanecarboxamide]
EC50 [2]: > 10 µM | inhibition at 10 µM [2]: 28.8%

Compound: COc1cccc(-c2nccc3[nH]c(-c4n[nH]c5ccc(-c6cncc(OC7CCNCC7)c6)nc45)nc23)c1 [Compound 1025, 3-(4-(3-Methoxyphenyl)-1H-imidazo[4,5-c]pyridin-2-yl)-5-(5-(piperidin-4-yloxy)pyridin-3-yl)-1H-pyrazolo[4,3-b]pyridine]
EC50 [2]: 3.33 µM

Compound: CN1CCN(c2nccc3[nH]c(-c4n[nH]c5ccc(-c6cnccn6)nc45)nc23)CC1 [Compound 648, 3-(4-(4-Methylpiperazin-1-yl)-1H-imidazo[4,5-c]pyridin-2-yl)-5-(pyrazin-2-yl)-1H-pyrazolo[4,3-b]pyridine]
EC50 [2]: 6.47 µM

Compound: NC1CN(c2cncc(-c3ccc4[nH]nc(-c5nc6c(-c7ccc(Cl)s7)nccc6[nH]5)c4n3)n2)C1 [Compound 1068, 1-(6-(3-(4-(5-Chlorothiophen-2-yl)-1H-imidazo[4,5-c]pyridin-2-yl)-1H-pyrazolo[4,3-b]pyridin-5-yl)pyrazin-2-yl)azetidin-3-amine]
EC50 [2]: 3.99 µM

Compound: O=C(Nc1cncc(-c2ccc3[nH]nc(-c4nc5c(-c6ccsc6)nccc5[nH]4)c3n2)c1)c1ccccc1 [Compound 291, N-(5-(3-(4-(Thiophen-3-yl)-1H-imidazo[4,5-c]pyridin-2-yl)-1H-pyrazolo [4,3-b]pyridin-5-yl)pyridin-3-yl)benzamide]
EC50 [2]: > 10 µM | inhibition at 10 µM [2]: 0%

Compound: Cc1ccc(-c2nccc3[nH]c(-c4n[nH]c5ccc(C6=CCNCC6)nc45)nc23)s1 [Compound 730, 3-(4-(5-Methylthiophen-2-yl)-1H-imidazo[4,5-c]pyridin-2-yl)-5-(1,2,3,6-tetrahydropyridin-4-yl)-1H-pyrazolo[4,3-b]pyridine]
EC50 [2]: 6.17 µM

Compound: O=C(Nc1cncc(-c2ccc3[nH]nc(-c4nc5c(-c6ccccc6F)nccc5[nH]4)c3n2)c1)C1CCCC1 [Compound 78, N-(5-(3-(4-(2-Fluorophenyl)-1H-imidazo[4,5-c]pyridin-2-yl)-1H-pyrazolo [4,3-b]pyridin-5-yl)pyridin-3-yl)cyclopentanecarboxamide]
EC50 [2]: > 10 µM | inhibition at 10 µM [2]: 0%

Compound: CN(C)CCNc1cc(F)cc(-c2nccc3[nH]c(-c4n[nH]c5ccc(-c6cnccn6)nc45)nc23)c1 [Compound 792, N^1-(3-Fluoro-5-(2-(5-(pyrazin-2-yl)-1H-pyrazolo[4,3-b]pyridin-3-yl)-1H-imidazo[4,5-c]pyridin-4-yl)phenyl)-N^2,N^2-dimethylethane-1,2-diamine]
EC50 [2]: > 10 µM | inhibition at 10 µM [2]: 0%

Compound: CS(=O)(=O)NCc1cc(F)cc(-c2nccc3[nH]c(-c4n[nH]c5ccc(-c6cncc(NC(=O)CC7CCNCC7)c6)nc45)nc23)c1 [Compound 769, N-(5-(3-(4-(3-Fluoro-5-(methylsulfonamidomethyl)phenyl)-1H-imidazo[4,5-c]pyridin-2-yl)-1H-pyrazolo[4,3-b]pyridin-5-yl)pyridin-3-yl)-2-(piperidin-4-yl)acetamide]
EC50 [2]: 5.05 µM

Compound: COc1cccc(-c2nccc3[nH]c(-c4n[nH]c5ccc(-c6cn[nH]c6)nc45)nc23)c1 [Compound 1020, 3-(4-(3-Methoxyphenyl)-1H-imidazo[4,5-c]pyridin-2-yl)-5-(1H-pyrazol-4-yl)-1H-pyrazolo[4,3-b]pyridine]
EC50 [2]: > 10 µM | inhibition at 10 µM [2]: 0%

Compound: O=C(Nc1cncc(-c2ccc3[nH]nc(-c4nc5c(-c6ccncc6)nccc5[nH]4)c3n2)c1)C1CCCCC1 [Compound 135, N-(5-(3-(4-(pyridin-4-yl)-1H-imidazo[4,5-c]pyridin-2-yl)-1H-pyrazolo[4,3-b]pyridin-5-yl)pyridin-3-yl)cyclohexanecarboxamide]
EC50 [2]: > 10 µM | inhibition at 10 µM [2]: 0%
